Where a chain is given by its changes, count along the chain named.

One assay deals with T1, hybrid L2/pSS (Oryza sativa; Solanum tuberosum, UniProt P23509+Q7G065).
T1 construct: hybrid heterotetramer of whole rice L2 and whole potato SS, E. coli EA345, purified
T1 sequence (P23509 73-521): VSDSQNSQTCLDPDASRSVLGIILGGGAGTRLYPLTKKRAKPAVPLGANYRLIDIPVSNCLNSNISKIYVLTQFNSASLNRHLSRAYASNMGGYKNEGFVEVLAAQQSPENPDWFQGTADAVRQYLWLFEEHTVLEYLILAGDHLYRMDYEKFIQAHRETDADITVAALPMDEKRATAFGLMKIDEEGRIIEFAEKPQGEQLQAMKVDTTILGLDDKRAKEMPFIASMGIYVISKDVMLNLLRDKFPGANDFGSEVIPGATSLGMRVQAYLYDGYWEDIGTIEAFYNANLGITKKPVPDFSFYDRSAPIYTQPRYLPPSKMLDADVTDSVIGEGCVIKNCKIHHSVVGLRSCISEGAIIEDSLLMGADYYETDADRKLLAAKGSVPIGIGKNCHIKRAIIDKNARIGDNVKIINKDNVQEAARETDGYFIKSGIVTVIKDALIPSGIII
T1 sequence (Q7G065 1-518): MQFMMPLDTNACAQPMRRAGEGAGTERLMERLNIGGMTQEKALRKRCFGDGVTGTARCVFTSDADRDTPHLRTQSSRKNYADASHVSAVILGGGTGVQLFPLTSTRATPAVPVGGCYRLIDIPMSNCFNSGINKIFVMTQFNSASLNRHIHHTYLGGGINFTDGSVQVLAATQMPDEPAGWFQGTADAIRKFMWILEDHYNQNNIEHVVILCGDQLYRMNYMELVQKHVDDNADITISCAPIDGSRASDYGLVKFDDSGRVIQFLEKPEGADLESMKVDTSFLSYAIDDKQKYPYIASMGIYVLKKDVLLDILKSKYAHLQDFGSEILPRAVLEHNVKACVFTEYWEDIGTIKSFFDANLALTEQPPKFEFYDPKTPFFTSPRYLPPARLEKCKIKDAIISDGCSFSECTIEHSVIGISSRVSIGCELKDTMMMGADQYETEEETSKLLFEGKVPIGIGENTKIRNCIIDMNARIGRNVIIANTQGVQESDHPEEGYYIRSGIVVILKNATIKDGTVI
The experiment in a line: AGPase activity, phosphate release (PAMb colorimetric), Hill fit. The format is biochemical. The note with it: allosteric activator; ATP and Glc1P, 10 mM MgCl2, pH 8.0, room temperature; enzyme reduced with 10 mM DTT; read-out: A0.5. From the text: AGPase activity, phosphate release (PAMb colorimetric), Hill fit on hybrid L2/pSS

In assay [1] the target is T2, rice AGPase L2/S2b (wild type; parent of L2/S2b^QTC and PQ6) (Oryza sativa, UniProt B7EVB8+Q7G065).
T2 construct: gene AGPL2
T2 sequence (Q7G065 1-518): T1 sequence (Q7G065 1-518)
T2 sequence (B7EVB8 1-479): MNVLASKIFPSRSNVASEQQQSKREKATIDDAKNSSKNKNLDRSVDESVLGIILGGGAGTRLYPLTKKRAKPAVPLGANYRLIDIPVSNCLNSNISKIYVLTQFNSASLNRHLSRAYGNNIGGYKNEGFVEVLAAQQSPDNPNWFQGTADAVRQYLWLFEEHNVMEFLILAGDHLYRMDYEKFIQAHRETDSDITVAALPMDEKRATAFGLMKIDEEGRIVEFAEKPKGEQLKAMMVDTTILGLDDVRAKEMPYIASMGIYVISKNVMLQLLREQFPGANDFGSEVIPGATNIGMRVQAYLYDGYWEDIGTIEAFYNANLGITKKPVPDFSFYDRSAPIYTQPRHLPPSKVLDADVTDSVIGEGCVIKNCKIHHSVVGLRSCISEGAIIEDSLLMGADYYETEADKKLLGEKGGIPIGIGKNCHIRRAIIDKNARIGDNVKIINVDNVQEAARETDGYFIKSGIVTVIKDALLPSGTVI
The note with it: read-out: A0.5; allosteric activator; ADP-glucose synthesis with ATP and Glc1P, 10 mM MgCl2, pH 8.0, room temperature; enzyme reduced with 10 mM DTT. From the text:
(§1) AGPase activity, phosphate release (PAMb colorimetric), Hill fit on rice AGPase L2/S2b (wild type; parent of L2/S2b^QTC and PQ6)

Assay [2] addresses T3, rice AGPase L2/S2b (wild type; parent of L2/S2b^QTC and PQ6) (Oryza sativa, UniProt B7EVB8+Q7G065, B7EVB8:N38Q/B7EVB8:K39T/B7EVB8:N40C).
T3 construct: gene AGPL2
T3 sequence (Q7G065 1-518): T1 sequence (Q7G065 1-518)
T3 sequence (B7EVB8 1-479 N38Q/K39T/N40C): T2 sequence (B7EVB8 1-479) with N38Q, K39T, N40C
Conditions: read-out: A0.5; allosteric activator; ATP and Glc1P, 10 mM MgCl2, pH 8.0, room temperature; enzyme reduced with 10 mM DTT.
Description: as §1

The target of assay [3] is T4, rice AGPase L2/S2b (wild type; parent of L2/S2b^QTC and PQ6) (Oryza sativa, UniProt B7EVB8+Q7G065, B7EVB8:N38Q/B7EVB8:K39T/B7EVB8:N40C/B7EVB8:L379F).
T4 construct: gene AGPL2
T4 sequence (Q7G065 1-518): T1 sequence (Q7G065 1-518)
T4 sequence (B7EVB8 1-479 N38Q/K39T/N40C/L379F): T2 sequence (B7EVB8 1-479) with N38Q, K39T, N40C, L379F
The note with it: read-out: A0.5; allosteric activator; ATP and Glc1P, 10 mM MgCl2, pH 8.0, room temperature; enzyme reduced with 10 mM DTT.
Description: as §1

As to `O=C(O)[C@H](O)COP(=O)(O)O` [3-PGA], the EC50 at hybrid L2/pSS is 147 ± 3 µM; in assay [1] it was 342 ± 30 µM; in assay [2], 95 ± 2 µM; in assay [3] it was 106 µM.

For the origin of these results see publication PMC6378277, “Mechanism Underlying Heat Stability of the Rice Endosperm Cytosolic ADP-Glucose Pyrophosphorylase” (Frontiers in Plant Science, 2019).
